Series [1] can be described thus: Particle size (laser particle-size distribution analysis). Format: physicochemical. As to conditions: for Particle size D50μ: Test in Mobile Minor unit, IN/OUT temperature differs per test.
Series [2] is described as follows: Residual humidity of the powder. Conditions: for Humidity %: Test in Mobile Minor unit, IN/OUT temperature differs per test. The class given is physicochemical.
A short description of series [3]: S,S isomer content by HPLC (area of active isomer to sum of both isomers). The class given is physicochemical. As to conditions: for S,S Stereoisomer %: Test in Mobile Minor unit, IN/OUT temperature differs per test; for enantiomeric excess of S,S isomer: sterile spray-dried product. The protocol:
The S-adenosyl methionine of the invention preferably has a water content below 2% by weight and an active enantiomer content exceeding 75% of the total SAMe. The enantiomer content is determined by the percentage of the area of active isomer to the sum of the area of both isomers in the HPLC analysis.

For series [4] the following is noted: sterile spray-dried product.
Series [5] is described as follows: Stability of SAMe salt solutions. Format: physicochemical.
Another series in a line: BET surface area. The class given is physicochemical.
The nature of series [6]: Microscope appearance of particles. The class given is physicochemical.
Where [7] appears, read: spray-dried, TIN 150° C., TOUT 95-96° C.
Where [8] appears, read: Table 2, comparison with the medicament on the market.

Here are results for six compounds from patent publication US20160271063A1, “STERILE S-ADENOSYL METHIONINE WITH A HIGH CONTENT OF ACTIVE ISOMER FOR INJECTABLE SOLUTIONS, AND PROCEDURE FOR OBTAINING IT” (GNOSIS S.P.A., priority 2013, published 2016).

The structures appear in SMILES notation. “Also recorded” adds a separate entry of the source.

Regarding `C[S+](CC[C@H](N)C(=O)[O-])C[C@H]1O[C@@H](n2cnc3c(N)ncnc32)[C@H](O)[C@@H]1O.O=S(=O)(O)CCCCS(=O)(=O)O` (single isomer, unassigned) [Example 4, SAMe 1,4-butanedisulphonate], the “Particle size D50μ” value in series [1] was 8 μ. This compound showed a Humidity % in series [2] of 1.63%. Moreover, in series [3], the “S,S Stereoisomer %” value was found to be 72.60% and the “enantiomeric excess of S,S isomer” value is on record as “exceeding 80%”. For the same compound, the endotoxin level result in series [4] is given as “less than 0.118 U/g”.
Turning to `C[S+](CC[C@H](N)C(=O)[O-])C[C@H]1O[C@@H](n2cnc3c(N)ncnc32)[C@H](O)[C@@H]1O` (some centres unmarked) [SAMe SD4, S-adenosyl methionine], the “stability of the solution” value is “break down rapidly” in series [5] (at ambient temperature) and “stable” in series [5] (stored at a cold temperature, unless microbial contamination is present).
As for `C[S+](CC[C@H](N)C(=O)[O-])C[C@H]1O[C@@H](n2cnc3c(N)ncnc32)[C@H](O)[C@@H]1O.O=S(=O)(O)CCCCS(=O)(=O)O` (single isomer, unassigned) [Example 7, SAMe 1,4-butanedisulphonate, reference compound], the “Particle size D50μ” value in series [1] was found to be 10 μ. This compound also gave a Humidity % in series [2] of 2.65%. In series [3], the “enantiomeric ratio, S,S isomer” value is given as 70% and the “S,S Stereoisomer %” value is recorded as 75.95%.
Turning to `C[S+](CC[C@H](N)C(=O)[O-])C[C@H]1O[C@@H](n2cnc3c(N)ncnc32)[C@H](O)[C@@H]1O.O=S(=O)(O)CCCCS(=O)(=O)O` (single isomer, unassigned) [Example 3, SAMe 1,4-butanedisulphonate], the “Particle size D50μ” value in series [1] was found to be 9 μ. Moreover, the Humidity % in series [2] turned out to be 1.63%. In series [3], the “S,S Stereoisomer %” value amounted to 75.65% and the “enantiomeric excess of S,S isomer” value was “exceeding 80%”. Further, the endotoxin level result in series [4] was “less than 0.118 U/g”.
For `C[S+](CC[C@H](N)C(=O)[O-])C[C@H]1O[C@@H](n2cnc3c(N)ncnc32)[C@H](O)[C@@H]1O.O=S(=O)(O)CCCCS(=O)(=O)O` (some centres unmarked) [Example 1, SAMe 1,4-butanedisulphonate], in series [1] (setting [7]), the “particle size D50” value was 10 microns. For the same compound, in series [2] (setting [7]), the residual humidity was determined as 1.50%. Also, the stereoisomeric ratio in series [3] (setting [7]) was found to be 73.77%.
`C[S+](CC[C@H](N)C(=O)[O-])C[C@H]1O[C@@H](n2cnc3c(N)ncnc32)[C@H](O)[C@@H]1O.O=S(=O)(O)CCCCS(=O)(=O)O` (single isomer, unassigned) [Example 5, SAMe 1,4-butanedisulphonate]: the “Laser particle-size distribution analysis, 10%” value in series [1] (10%) stood at 10% = 14.4 micron. In series [1] (50%), the “Laser particle-size distribution analysis, 50%” value is recorded as 50% = 28.7 micron. For the same compound, the “Laser particle-size distribution analysis, 90%” value in series [1] (90%) was 90% = 53.8 micron. Moreover, the “Particle size D50μ” value in series [1] is reported as 9 μ. This compound yielded a Humidity in series [2] (setting [8]) of 1.20%. This compound yielded a Humidity % in series [2] of 1.88%. Moreover, in series [3] (setting [8]), the “SS isomer (%)” value was determined as 73.1%. Moreover, in series [3], the “S,S Stereoisomer %” value was 76.63%. For the same compound, the “BET surface area (m2/g)” value in “BET surface area” is on record as 0.3460 m2/g. The Microscope result in series [6] is reported as “Regular,; also recorded: spherical particles”.
